Measurements: ChEMBL document CHEMBL3885881, “DrugMatrix”
Where “and” joins values, the source holds several entries; their conditions need not be identical. Equal values may be shown once.

Species: Rattus norvegicus
Test: DrugMatrix - Regimen: Daily Repeat
Format: toxicity, organism-based, Sprague-Dawley
Parameters: regimen Daily Repeat, gender Male, age 6-8 weeks
Conditions: in vivo, po, 0 mg/kg, route oral GAVAGE, dose level Control, vehicle 100 % SALINE; for ABSOLUTE BASOPHIL / ABSOLUTE LYMPHOCYTE / ABSOLUTE SEGMENTED NEUTROPHIL / BASOPHIL / EOSINOPHIL / ERYTHROCYTE COUNT / HEMATOCRIT / HEMOGLOBIN / LEUKOCYTE COUNT / LYMPHOCYTE / MEAN CORPUSCULAR HEMOGLOBIN / MEAN CORPUSCULAR HEMOGLOBIN CONCENTRATION / MONOCYTE / NEUTROPHIL / NUCLEATED RED BLOOD CELLS / PLATELET COUNT / ABSOLUTE EOSINOPHIL / ABSOLUTE MONOCYTE: tissue Blood
[1] = 72 h, tissue Plasma, time 3 day
[2] = 120 h, tissue Plasma, time 5 day

SMILES: CN(C)C=O [DIMETHYLFORMAMIDE]
- ABSOLUTE BASOPHIL (72 h, time 3 day): 0 CELLS/uL
- ABSOLUTE LYMPHOCYTE (72 h, time 3 day): 8960.83 CELLS/uL and 11922.83 CELLS/uL
- ABSOLUTE SEGMENTED NEUTROPHIL (72 h, time 3 day): 635.67 CELLS/uL and 1526.33 CELLS/uL
- BASOPHIL (72 h, time 3 day): 0%
- EOSINOPHIL (72 h, time 3 day): 0% and 0.5%
- ERYTHROCYTE COUNT (72 h, time 3 day): 5.09 x10E6/uL and 5.62 x10E6/uL
- HEMATOCRIT (72 h, time 3 day): 31.8% and 37.17%
- HEMOGLOBIN (72 h, time 3 day): 12.42 G/DL and 13.53 G/DL
- LEUKOCYTE COUNT (72 h, time 3 day): 9.7 x10E3/uL and 13.92 x10E3/uL
- LYMPHOCYTE (72 h, time 3 day): 92.33% and 86.17%
- MEAN CORPUSCULAR HEMOGLOBIN (72 h, time 3 day): 24.4 pg and 24.07 pg
- MEAN CORPUSCULAR HEMOGLOBIN CONCENTRATION (72 h, time 3 day): 39.07 G/DL and 36.42 G/DL
- MONOCYTE (72 h, time 3 day): 1% and 3%
- NEUTROPHIL (72 h, time 3 day): 6.67% and 10.33%
- NUCLEATED RED BLOOD CELLS (72 h, time 3 day): 0 /100WBC
- PLATELET COUNT (72 h, time 3 day): 466.5 x10E3/uL and 1107 x10E3/uL
- ALANINE AMINOTRANSFERASE [1]: 83.33 u/L and 45.33 u/L
- ALBUMIN [1]: 4.33 G/DL and 4.3 G/DL
- ALKALINE PHOSPHATASE [1]: 340.5 u/L and 321.33 u/L
- ASPARTATE AMINOTRANSFERASE [1]: 189.83 u/L and 77.33 u/L
- BLOOD UREA NITROGEN [1]: 15.83 mg/dL and 14.33 mg/dL
- CARBON DIOXIDE [1]: 38 mmol/L and 32.33 mmol/L
- CHLORIDE [1]: 96.83 MEQ/L and 99.67 MEQ/L
- CHOLESTEROL [1]: 72.5 mg/dL and 82.33 mg/dL
- CREATINE PHOSPHOKINASE [1]: 370.67 u/L and 205.5 u/L
- CREATININE [1]: 0.28 mg/dL and 0.19 mg/dL
- GLUCOSE [1]: 182.83 mg/dL and 150.83 mg/dL
- LIPASE [1]: 9.83 u/L and 10.83 u/L
- PHOSPHORUS [1]: 11.32 mg/dL and 10.9 mg/dL
- SODIUM [1]: 145.12 MEQ/L and 145.15 MEQ/L
- TOTAL BILIRUBIN [1]: 0.2 mg/dL and 0.12 mg/dL
- TOTAL PROTEIN [1]: 6.4 G/DL and 6.22 G/DL
- ABSOLUTE BASOPHIL (120 h, time 5 day): 0 CELLS/uL
- ABSOLUTE EOSINOPHIL (120 h, time 5 day): 43.83 CELLS/uL
- ABSOLUTE LYMPHOCYTE (120 h, time 5 day): 7316.67 CELLS/uL
- ABSOLUTE MONOCYTE (120 h, time 5 day): 87.33 CELLS/uL
- ABSOLUTE SEGMENTED NEUTROPHIL (120 h, time 5 day): 418.83 CELLS/uL
- BASOPHIL (120 h, time 5 day): 0%
- EOSINOPHIL (120 h, time 5 day): 0.33%
- ERYTHROCYTE COUNT (120 h, time 5 day): 4.77 x10E6/uL
- HEMATOCRIT (120 h, time 5 day): 29.93%
- HEMOGLOBIN (120 h, time 5 day): 11.48 G/DL
- LEUKOCYTE COUNT (120 h, time 5 day): 7.87 x10E3/uL
- LYMPHOCYTE (120 h, time 5 day): 93.5%
- MEAN CORPUSCULAR HEMOGLOBIN (120 h, time 5 day): 24.17 pg
- MEAN CORPUSCULAR HEMOGLOBIN CONCENTRATION (120 h, time 5 day): 38.57 G/DL
- MONOCYTE (120 h, time 5 day): 1%
- NEUTROPHIL (120 h, time 5 day): 5.17%
- NUCLEATED RED BLOOD CELLS (120 h, time 5 day): 0 /100WBC
- PLATELET COUNT (120 h, time 5 day): 377.67 x10E3/uL
- ALANINE AMINOTRANSFERASE [2]: 89 u/L
- ALBUMIN [2]: 4.42 G/DL
- ALKALINE PHOSPHATASE [2]: 275.17 u/L
- ASPARTATE AMINOTRANSFERASE [2]: 204.17 u/L
- BLOOD UREA NITROGEN [2]: 15.33 mg/dL
- CARBON DIOXIDE [2]: 36.83 mmol/L
- CHLORIDE [2]: 94.67 MEQ/L
- CHOLESTEROL [2]: 92 mg/dL
- CREATINE PHOSPHOKINASE [2]: 514.5 u/L
- CREATININE [2]: 0.24 mg/dL
- GLUCOSE [2]: 184.17 mg/dL
- LACTATE DEHYDROGENASE [2]: 648.67 u/L
- LIPASE [2]: 10 u/L
- PHOSPHORUS [2]: 12.33 mg/dL
- SODIUM [2]: 144.63 MEQ/L
- TOTAL BILIRUBIN [2]: 0.18 mg/dL
- TOTAL PROTEIN [2]: 6.7 G/DL
- ABSOLUTE BASOPHIL ([…], time 7 day): 0 CELLS/uL
- ABSOLUTE EOSINOPHIL ([…], time 7 day): 22 CELLS/uL
- ABSOLUTE LYMPHOCYTE ([…], time 7 day): 11105.17 CELLS/uL
- ABSOLUTE MONOCYTE ([…], time 7 day): 258.17 CELLS/uL
- ABSOLUTE SEGMENTED NEUTROPHIL ([…], time 7 day): 881.33 CELLS/uL
- BASOPHIL ([…], time 7 day): 0%
- EOSINOPHIL ([…], time 7 day): 0.17%
- ERYTHROCYTE COUNT ([…], time 7 day): 5.29 x10E6/uL
- HEMATOCRIT ([…], time 7 day): 34.03%
- HEMOGLOBIN ([…], time 7 day): 13.67 G/DL
- LEUKOCYTE COUNT ([…], time 7 day): 12.27 x10E3/uL
- LYMPHOCYTE ([…], time 7 day): 90.83%
- MEAN CORPUSCULAR HEMOGLOBIN ([…], time 7 day): 25.9 pg
- MEAN CORPUSCULAR HEMOGLOBIN CONCENTRATION ([…], time 7 day): 40.18 G/DL
- MONOCYTE ([…], time 7 day): 2.17%
- NEUTROPHIL ([…], time 7 day): 6.83%
- NUCLEATED RED BLOOD CELLS ([…], time 7 day): 0 /100WBC
- PLATELET COUNT ([…], time 7 day): 1159.83 x10E3/uL
- ALANINE AMINOTRANSFERASE ([…], tissue Plasma, time 7 day): 45.83 u/L
- ALBUMIN ([…], tissue Plasma, time 7 day): 4.1 G/DL
- ALKALINE PHOSPHATASE ([…], tissue Plasma, time 7 day): 240 u/L
- ASPARTATE AMINOTRANSFERASE ([…], tissue Plasma, time 7 day): 88.67 u/L
- BLOOD UREA NITROGEN ([…], tissue Plasma, time 7 day): 13.67 mg/dL
- CARBON DIOXIDE ([…], tissue Plasma, time 7 day): 31.83 mmol/L
- CHLORIDE ([…], tissue Plasma, time 7 day): 96.83 MEQ/L
- CHOLESTEROL ([…], tissue Plasma, time 7 day): 71.17 mg/dL
- CREATINE PHOSPHOKINASE ([…], tissue Plasma, time 7 day): 202.5 u/L
- CREATININE ([…], tissue Plasma, time 7 day): 0.22 mg/dL
